Assays:
[1] = system: R848-induced signaling pathway in human peripheral blood mononuclear cells; experiment: ELISA of TNF-α in R848-treated human peripheral blood mononuclear cells; assay type: cell-based; settings: human peripheral blood mononuclear cells (FIG. 8)
Method: After 48 hours, suspending cells would adhere onto the surface of the 12-well plate, non-adhered cells and the medium were aspirated, and cells were washed with sterile […] buffer (3×1 mL). RPMI medium was added (1 mL/well), and R848 (1 μg/mL) and various concentrations of Compound 24 or Compound 10 (as a negative control) were further added to treat cells. Or, the same amount of peripheral blood mononuclear cells derived from healthy human were used instead of THP-1 cells for subsequent experiments.
After 24 hours, the supernatant of the medium was collected and stored in a freezer at −80° C. Cells were washed with PBS (3×1 mL), the 12-well plate was placed on ice, and then 400 μL of lysis buffer (containing protease inhibitor) was added to each well, during which the cells were pipetted every five minutes. After 20 minutes, the mixture was transferred to the corresponding 1.5-mL tube and centrifuged at 13.2K rpm and 4° C. for 20 minutes. 350 μL of the supernatant was collected into a new centrifuge tube and frozen at −80° C.
Cytokines interleukin-1β(IL-1β), interleukin-6 (IL-6) and tumor necrosis factor (TNF-α) were quantified by enzyme-linked immunosorbent assay (ELISA) according to the instructions of the kit provided by the manufacturer.

[2] = target: T1, TLR8 (Homo sapiens, UniProt Q9NR97); experiment: ssRNA40-induced signaling in HEK-Blue hTLR8 cell line; assay type: cell-based; settings: at a concentration of 100 μM (FIG. 12)
T1 construct: host or cells: HEK-Blue hTLR8 (HEK293-derived SEAP reporter cells)
T1 sequence (Q9NR97 27-1041): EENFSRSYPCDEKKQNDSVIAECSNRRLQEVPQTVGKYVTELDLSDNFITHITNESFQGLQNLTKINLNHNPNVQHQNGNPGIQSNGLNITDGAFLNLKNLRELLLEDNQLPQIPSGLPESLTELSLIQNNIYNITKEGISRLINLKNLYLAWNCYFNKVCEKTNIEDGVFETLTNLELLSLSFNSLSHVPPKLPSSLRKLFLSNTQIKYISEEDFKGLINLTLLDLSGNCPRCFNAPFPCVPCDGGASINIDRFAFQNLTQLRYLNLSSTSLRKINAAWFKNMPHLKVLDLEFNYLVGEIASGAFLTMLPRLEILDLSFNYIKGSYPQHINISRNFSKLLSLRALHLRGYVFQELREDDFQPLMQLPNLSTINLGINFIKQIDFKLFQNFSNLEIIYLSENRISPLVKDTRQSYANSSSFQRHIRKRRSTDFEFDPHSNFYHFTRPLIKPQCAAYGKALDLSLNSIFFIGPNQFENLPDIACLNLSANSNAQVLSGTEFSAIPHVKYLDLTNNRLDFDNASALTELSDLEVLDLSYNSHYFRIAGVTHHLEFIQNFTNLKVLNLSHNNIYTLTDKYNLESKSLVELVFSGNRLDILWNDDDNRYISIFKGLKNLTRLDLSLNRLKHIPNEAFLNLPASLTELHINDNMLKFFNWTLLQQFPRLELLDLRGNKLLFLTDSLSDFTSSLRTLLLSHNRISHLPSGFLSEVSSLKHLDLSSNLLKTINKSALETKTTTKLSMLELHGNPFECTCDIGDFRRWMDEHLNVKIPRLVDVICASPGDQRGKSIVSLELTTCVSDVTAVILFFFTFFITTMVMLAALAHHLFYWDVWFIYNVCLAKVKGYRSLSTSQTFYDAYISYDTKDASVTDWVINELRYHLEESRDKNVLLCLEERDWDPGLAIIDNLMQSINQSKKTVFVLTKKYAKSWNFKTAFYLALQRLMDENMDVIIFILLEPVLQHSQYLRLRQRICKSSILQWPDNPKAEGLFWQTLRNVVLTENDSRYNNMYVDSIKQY
Method: HEK Blue hTLR8 cells or HEK Blue hTLR7 cells were cultured in DMEM medium supplemented with 10% fetal bovine serum, penicillin (100 U/mL) and streptomycin ([…]). Thereafter, cells were seeded in 96-well plate (45,000 cells per well), and were cultured for 24 hours in a humidified incubator (37° C., 5% CO2).
After 24 hours, the supernatant and suspending cells were aspirated and replaced with fresh serum-free DMEM. Cells were treated with 1 μg/mL of R848 (agonist of TLR7/8) or 5 μg/mL of ssRNA40/LyoVec or 5 μg/mL of ORN06/LyoVec (InvivoGen) and compounds with specified concentrations, and were placed in a humidified incubator (37° C., 5% CO2) for co-culture.
After 24 hours, 50 μL of the medium was aspirated from each well and then added to a new 96-well plate, followed by the addition of 50 μL of Quanti-Blue in each well and the incubation at 37° C. in darkness. Changes in color would occur in the […] within 60 minutes, and the absorbance was measured at 620 nm by using the multi-mode plate reader Vrioskan Flash. Inhibition rate (%)=[R848 (OD620)−Compound (OD620)]/[R848 (OD620)−Control (OD620)]×100%. Among these, the control group was only added with the same amount of cells. Finally, the software Prism 6.0 was utilized to plot a graph and calculate IC50 values. […]

SMILES	inhibitory effect on inflammatory factor TNF-α [1]	synergistic activating effect on ssRNA40-induced signaling [2]
CSc1nnc(CCCO)n1-c1cc(C)c(C)c(C)c1 [Compound 24, 3-(5-(methylthio)-4-(3,4,5-trimethylphenyl)-4H-1,2,4-triazole-3-yl)propan-1-ol]	significant inhibitory effect	–
CCOCc1nc(I)c(-c2ccccc2)n1CC(C)(C)O [Compound 53, 1-[2-(ethoxymethyl)-4-iodo-5-phenyl-1H-imidazole-1-yl]-2-methylpropan-2-ol]	–	synergistic activating effect

Reference: US20230002327A1, “SMALL-MOLECULE REGULATOR OF TLR8” (TSINGHUA UNIVERSITY, priority 2019, published 2023)
